Where two headings read alike, the source gives them in different places.
Tests used:
[1] = human plasma; cited from earlier work
[2] = type: in vivo, human
human MRP4 = biological target: T1, human MRP4 (Homo sapiens, UniProt O15439); assay: MRP4-mediated vesicular transport assay; type: in vitro ADME; details: membrane vesicles, peficitinib up to 100 μmol/L
T1 sequence (O15439 1-1325): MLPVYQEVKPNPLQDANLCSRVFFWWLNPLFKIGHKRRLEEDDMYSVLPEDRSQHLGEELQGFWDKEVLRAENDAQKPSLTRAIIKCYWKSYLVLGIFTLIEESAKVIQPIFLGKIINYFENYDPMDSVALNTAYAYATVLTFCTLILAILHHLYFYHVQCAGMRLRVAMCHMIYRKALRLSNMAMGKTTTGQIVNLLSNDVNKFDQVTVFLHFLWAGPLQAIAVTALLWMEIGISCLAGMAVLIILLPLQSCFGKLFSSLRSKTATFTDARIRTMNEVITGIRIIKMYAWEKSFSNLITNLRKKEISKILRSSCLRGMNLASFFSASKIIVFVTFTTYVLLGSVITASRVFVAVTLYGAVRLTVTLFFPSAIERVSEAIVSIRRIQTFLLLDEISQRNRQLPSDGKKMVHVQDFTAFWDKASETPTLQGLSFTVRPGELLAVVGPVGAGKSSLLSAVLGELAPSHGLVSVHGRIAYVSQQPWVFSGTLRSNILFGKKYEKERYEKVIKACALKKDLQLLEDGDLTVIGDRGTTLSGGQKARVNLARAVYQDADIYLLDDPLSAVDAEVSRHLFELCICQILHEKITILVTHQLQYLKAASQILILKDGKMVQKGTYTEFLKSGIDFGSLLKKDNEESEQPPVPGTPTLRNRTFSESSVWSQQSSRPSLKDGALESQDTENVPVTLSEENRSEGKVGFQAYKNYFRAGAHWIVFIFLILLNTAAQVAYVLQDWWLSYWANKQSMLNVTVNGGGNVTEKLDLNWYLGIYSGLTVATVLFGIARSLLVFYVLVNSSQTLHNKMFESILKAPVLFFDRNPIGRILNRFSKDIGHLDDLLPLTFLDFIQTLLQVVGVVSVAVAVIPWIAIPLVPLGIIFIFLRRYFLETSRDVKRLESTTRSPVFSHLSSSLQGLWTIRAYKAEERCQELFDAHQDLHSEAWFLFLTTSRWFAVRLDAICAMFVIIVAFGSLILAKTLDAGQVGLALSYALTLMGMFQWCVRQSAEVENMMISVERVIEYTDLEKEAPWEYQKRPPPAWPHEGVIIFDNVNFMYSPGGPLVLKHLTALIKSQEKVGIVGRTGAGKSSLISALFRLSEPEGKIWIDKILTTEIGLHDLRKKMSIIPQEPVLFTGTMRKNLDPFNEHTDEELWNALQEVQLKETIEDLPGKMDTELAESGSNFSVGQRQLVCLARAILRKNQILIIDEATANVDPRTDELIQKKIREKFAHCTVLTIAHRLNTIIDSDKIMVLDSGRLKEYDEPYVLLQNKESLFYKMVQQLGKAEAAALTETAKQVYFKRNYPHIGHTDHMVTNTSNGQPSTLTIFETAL

human BCRP = biological target: T2, human BCRP (Homo sapiens, UniProt Q9UNQ0); assay: BCRP-mediated vesicular transport assay; type: in vitro ADME
T2 sequence (Q9UNQ0 1-655): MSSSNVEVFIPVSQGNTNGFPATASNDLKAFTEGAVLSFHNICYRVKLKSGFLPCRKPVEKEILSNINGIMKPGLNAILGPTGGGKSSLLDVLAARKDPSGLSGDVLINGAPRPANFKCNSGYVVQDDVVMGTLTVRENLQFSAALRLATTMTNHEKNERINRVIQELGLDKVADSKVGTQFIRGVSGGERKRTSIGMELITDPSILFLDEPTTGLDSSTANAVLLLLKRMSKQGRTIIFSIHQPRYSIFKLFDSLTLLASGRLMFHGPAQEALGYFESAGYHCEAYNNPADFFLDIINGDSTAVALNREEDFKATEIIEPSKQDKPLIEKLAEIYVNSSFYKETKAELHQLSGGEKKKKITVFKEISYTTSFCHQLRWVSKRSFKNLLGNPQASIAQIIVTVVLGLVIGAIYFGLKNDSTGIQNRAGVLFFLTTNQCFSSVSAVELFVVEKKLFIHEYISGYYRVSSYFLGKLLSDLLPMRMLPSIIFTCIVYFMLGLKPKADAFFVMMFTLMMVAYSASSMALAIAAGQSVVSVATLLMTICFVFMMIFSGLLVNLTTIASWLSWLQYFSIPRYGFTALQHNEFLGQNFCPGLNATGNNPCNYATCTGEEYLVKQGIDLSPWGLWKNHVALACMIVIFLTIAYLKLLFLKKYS

OAT3 = biological target: T3, OAT3 (Homo sapiens, UniProt Q8TCC7); assay: OAT3-mediated inhibition assay in S2 cells; type: in vitro ADME
T3 sequence (Q8TCC7 1-542): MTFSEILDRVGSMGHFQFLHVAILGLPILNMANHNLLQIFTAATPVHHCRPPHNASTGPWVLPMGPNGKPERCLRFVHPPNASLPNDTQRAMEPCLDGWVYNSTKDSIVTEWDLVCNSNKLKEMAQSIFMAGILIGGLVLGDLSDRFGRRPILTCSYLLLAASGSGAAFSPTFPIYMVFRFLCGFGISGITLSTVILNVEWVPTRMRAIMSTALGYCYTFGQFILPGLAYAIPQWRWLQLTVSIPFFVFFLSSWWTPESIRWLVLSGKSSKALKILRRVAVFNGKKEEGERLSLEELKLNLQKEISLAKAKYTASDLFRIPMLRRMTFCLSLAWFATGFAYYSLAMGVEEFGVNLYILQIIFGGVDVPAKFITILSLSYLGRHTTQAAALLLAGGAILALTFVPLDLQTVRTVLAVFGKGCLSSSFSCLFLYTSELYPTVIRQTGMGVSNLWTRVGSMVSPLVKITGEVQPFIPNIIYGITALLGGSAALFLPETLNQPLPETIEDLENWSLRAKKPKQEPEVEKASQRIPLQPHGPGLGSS

[3] = healthy male subjects; cited from earlier work
JAK1 = details: cited from earlier work
tyrosine kinase 2 = details: cited from earlier work
JAK2 = details: cited from earlier work
Safety assessments = type: in vivo, human; details: per treatment period; for incidences of changes in diastolic blood pressure / incidences of changes in systolic blood pressure: potentially clinically relevant changes from baseline; for Patients who experienced AEs considered to be related to the study drug: treatment-emergent
JAK3 = details: cited from earlier work
OAT1 = biological target: T4, OAT1 (Homo sapiens, UniProt Q4U2R8); assay: OAT1-mediated inhibition assay in S2 cells; type: in vitro ADME; details: OAT1-expressing S2 cells
T4 sequence (Q4U2R8 1-563): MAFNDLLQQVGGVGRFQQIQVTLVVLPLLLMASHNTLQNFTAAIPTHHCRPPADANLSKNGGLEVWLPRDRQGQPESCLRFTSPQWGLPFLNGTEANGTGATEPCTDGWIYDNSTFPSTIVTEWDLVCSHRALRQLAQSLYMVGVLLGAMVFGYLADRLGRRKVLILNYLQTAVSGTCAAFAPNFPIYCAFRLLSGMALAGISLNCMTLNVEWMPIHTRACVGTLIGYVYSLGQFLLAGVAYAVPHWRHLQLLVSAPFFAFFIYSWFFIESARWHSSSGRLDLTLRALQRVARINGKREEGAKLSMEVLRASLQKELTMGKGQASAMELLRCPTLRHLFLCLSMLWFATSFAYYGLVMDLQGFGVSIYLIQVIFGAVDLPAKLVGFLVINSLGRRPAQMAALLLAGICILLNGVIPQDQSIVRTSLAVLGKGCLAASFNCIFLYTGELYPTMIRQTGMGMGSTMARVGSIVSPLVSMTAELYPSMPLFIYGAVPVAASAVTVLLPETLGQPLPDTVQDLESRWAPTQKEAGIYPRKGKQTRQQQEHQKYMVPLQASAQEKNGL

[4] = humans, over 24 h; cited from earlier work
[5] = cited from earlier work

NC(=O)c1cnc2[nH]ccc2c1N[C@@H]1[C@@H]2CC3C[C@H]1C[C@@](O)(C3)C2 [Peficitinib]
bound to protein [1]: 76–78%
decrease of peficitinib Cmax with methotrexate coadministration ([2]; Day 8 vs Day 7, from geometric mean ratio): 8%
Cmax ([2]; human, plasma, oral, 100 mg, individual maximum plasma Cmax, after 100 mg BID): 405 ng/mL
inhibitory effect on MRP4 (human MRP4): no significant inhibitory effects
IC50 (human BCRP): 13500 nM
IC50 (OAT3): 5010 nM
dose excreted unchanged in urine [3]: 14%
oral dose excreted in feces [3]: approximately 57%
oral dose excreted in urine [3]: Approximately 37%
oral dose undergoing metabolism [3]: over 65%
IC50 (JAK1): 3.9 nM
IC50 (tyrosine kinase 2): 4.8 nM
IC50 (JAK2): 5 nM
incidences of either high or low pulse rates (Safety assessments): 4
incidences of changes in diastolic blood pressure (Safety assessments): 9
incidences of changes in systolic blood pressure (Safety assessments): 3
Flatulence (Safety assessments; treatment-emergent AE): 4 (28.6) n (%)
Patients who experienced AEs considered to be related to the study drug (Safety assessments): 4 (28.6) n (%)
inhibitory effect on OAT1 (OAT1): no significant inhibitory effects

CN(Cc1cnc2nc(N)nc(N)c2n1)c1ccc(C(=O)N[C@@H](CCC(=O)O)C(=O)O)cc1 [Methotrexate, reference compound]
dose excreted unchanged in urine [4]: over 80%
effect on the pharmacokinetics of tofacitinib [5]: did not significantly affect the pharmacokinetics of tofacitinib
incidences of either high or low pulse rates (Safety assessments): 2
incidences of changes in diastolic blood pressure (Safety assessments): 7
incidences of changes in systolic blood pressure (Safety assessments): 4
Nausea (Safety assessments; treatment-emergent AE): 2 (13.3) n (%)
Patients who experienced AEs considered to be related to the study drug (Safety assessments): 2 (13.3) n (%)

Reference: article PMC7452880 (Clinical Drug Investigation, 2020)
